Reference: patent US20040009168A1, “Multidose antibody formulation” (priority 2002, published 2004)

Columns and labels:
[1] = test system: Escherichia coli, Staphylococcus aureus, Pseudomonas aeruginosa; assay: Preservative screening test (modified USP/EP preservative efficacy test), bacteria; format: cell-based; conditions: for maximal log reduction against bacteria (model simulation): individual preservative; for b-coefficient, Bacterial LR: ± 95% confidence limits; for Bacterial × 10^4 (cfu/mL): 1 week at 25 ° C., total bacterial count 8.78 × 10^4 cfu/mL; for antimicrobial efficacy against bacteria (regression analysis, in words): I-optimal design, 14 days at room temperature
Procedure: (§1) The efficacy of the preservative against various microorganisms was measured using a modified USP/EP preservative efficacy test. These tests were conducted at Microconsult Inc. (Dallas, Tex.). In the procedure, formulations were tested against the following microorganisms: Escherichia coli, Staphylococcus aureus, Pseudomonas aeruginosa, Candida albicans, and Aspergillus niger. The three bacterial strains were inoculated together at a total concentration of ˜10^5 cfu/mL, and the two fungi were inoculated together at a total concentration of ˜10^5 cfu/mL. Samples were incubated for 7 days at room temperature (25° C.), and the total bacterial and fungal counts were measured using a colony counter. The log reduction (LR) values for the bacterial and fungal counts were calculated as log (initial count/final count).
(§2) In the unmodified USP/EP preservative efficacy tests, each microorganism is tested separately at a concentration of ˜10^5 cfu/mL. […] The preservative efficacy test was modified in this study to reduce the total sample requirement and cost per analysis. Although the bacterial and fungal strains were not tested individually at specified concentrations, by comparing the overall bacterial and fungal log reduction values with the regulatory requirements, an assessment is made of the efficacy of the preservative against these microorganisms.
(§3) The formulations were prepared by adding the preservatives at the desired concentrations as per the I-optimal design table (Table II), generated using the software Strategy (Experiment Strategies Foundation & Process Builder, Inc.). All samples were incubated at 37° C. for 9 weeks. Because protein aggregation was known to be the primary degradation pathway, protein stability was examined by SEC and right-angle light scattering to monitor the formation of soluble and insoluble aggregates, respectively, and by UV spectroscopy to monitor changes in the protein concentration. The biological activity of the samples was assessed after 1 month at 37° C. Furthermore, to assess the antimicrobial efficacy of the formulations, samples were examined by the preservative screening test at the initial time point. Samples were incubated at room temperature, and the aerobic plate counts were measured based on the minimum requirements of the USP and BP/EP preservative efficacy tests at 24 hours, 7 days, and 14 days.

[2] = test system: Candida albicans, and Aspergillus niger; assay: Preservative screening test (modified USP/EP preservative efficacy test), fungi; format: cell-based; conditions: for Fungi × 10^5 (cfu/mL): 1 week at 25 ° C., total fungal count 2.84 × 10^5 cfu/mL
Procedure: as §1, §2, §3

[3] = test system: formulated humanized monoclonal antibody; assay: Visual analysis of the antibody formulation with preservative; format: physicochemical; conditions: for Visual analysis: after 2 days at 50° C.
Procedure: (§4) The compatibility of six parenteral preservatives (benzyl alcohol, chlorobutanol, methyl paraben, propyl paraben, phenol, and m-cresol) with the formulated humanized monoclonal antibody was tested. The preservatives were added to the formulated antibody based on their commonly used concentration ranges in marketed multidose products (3). Protein aggregation was suspected to be the primary degradation pathway. Preliminary evaluation of the preservatives was done initially by DSC and after 2 days of incubation at 50° C. by visual inspection for appearance and by SEC for soluble aggregates.

[4] = test system: formulated humanized monoclonal antibody; assay: Size-exclusion chromatography (SEC), monomer content; format: physicochemical; conditions: for Effect of the preservative on antibody stability (in words): preliminary screening, 2 days at 50° C.; for Monomer (%): 1 week at 45 ° C.; for Percent monomer (by SEC): after 2 days at 50° C.
Procedure: as §4
(§5) Because of the results seen in the preliminary evaluation, additional analyses were done using lower concentrations of the preservatives.
The monomer content, soluble aggregates, and clips due to hydrolysis were monitored by size-exclusion chromatography. The analytical system employed consisted of an HPLC pump (Perkin Elmer, Series 410) and an autosampler (Perkin Elmer, ISS 2000) connected to a diode array detector (Perkin Elmer, 235C). Two size-exclusion chromatography columns (Tosohaas TSK-Gel, G3000SWXL,), connected in tandem, were used for sample separation. The composition of the mobile phase was 200 mM KPO4, 150 mM NaCl, pH 6.9. Samples were diluted to 1 mg/mL and a sample volume of 40 μL was injected for analysis. The flow rate was 1.0 mL/min, and detection was at 220 and 280 nm.

[5] = test system: formulated humanized monoclonal antibody; assay: Differential scanning calorimetry (DSC), denaturation temperature; format: physicochemical; conditions: for Effect on the denaturation temperature (in words): addition of the preservative, relative to control; for Tm (by DSC): initial time point, t0
Procedure: as §4
A decrease in the denaturation temperature reflects a destabilizing effect of the preservative on formulation stability. The denaturation temperature (Tm) of the sample was measured using the Pyris 1 differential scanning calorimeter (Perkin Elmer). A sample volume of 50 μL was taken from a 10 mg/mL protein sample and sealed in a stainless steel pan. The sample was held at 32° C. for 2 minutes, and heated to 100° C. at the rate of 10° C./min.

[6] = test system: antigen expressed on human T cells; assay: Potency testing by FACS binding assay (flow cytometry); conditions: 1 week at 45 ° C.
Procedure: as §5
The biological activity (potency) of the protein was measured by flow cytometry, based on the binding of the antibody antigen expressed on human T cells.

[7] = main effect of the preservative (bi)
[8] = quadratic term of one preservative (bii)
[9] = single preservative, 0.2% chlorobutanol

| Monomer (%) ([4]; preservative 0.01%) | Compound | maximal log reduction against bacteria (model simulation) [1] | b-coefficient, Bacterial LR [1, 7] | b-coefficient, Bacterial LR [1, 8] | b-coefficient, Fungal LR [2, 7] | Fungi × 10^5 (cfu/mL) ([2]; preservative 0.05%) | Fungi × 10^5 (cfu/mL) ([2]; preservative 0.1%) | b-coefficient, Fungal LR [2, 8] | Visual analysis ([3]; preservative 0.1%) | Effect of the preservative on antibody stability (in words) [4] | Percent monomer (by SEC) ([4]; preservative 0.1%) [%] | Effect on the denaturation temperature (in words) [5] | Potency (%) ([6]; preservative 0.01%) | antimicrobial efficacy against bacteria (regression analysis, in words) [1] | Bacterial × 10^4 (cfu/mL) ([1]; preservative 0.01%) | Fungi × 10^5 (cfu/mL) ([2]; preservative 0.01%) | further results |
| --- | --- | --- | --- | --- | --- | --- | --- | --- | --- | --- | --- | --- | --- | --- | --- | --- | --- |
| – | CC(C)(O)C(Cl)(Cl)Cl [Chlorobutanol, chlorobutanol] | 2.0 | 0.27 ± 0.05 | 0.17 ± 0.10 | 0.07 | 18 × 10^5 cfu/mL | 14 × 10^5 cfu/mL | −0.64 | – | – | – | – | – | – | – | – | Bacterial × 10^4 (cfu/mL) ([1]; preservative 0.2%): 46 × 10^4 cfu/mL; log reduction value predicted by simulation, bacteria [1, 9]: 2.0; Fungi × 10^5 (cfu/mL) ([2]; preservative 0.2%): 0 × 10^5 cfu/mL; log reduction value predicted by simulation, fungi [2, 9]: 1.2 |
| 98.31 | COC(=O)c1ccc(O)cc1 [Methyl paraben, methyl paraben] | 2.3 | 0.60 ± 0.05 | 0.12 ± 0.10 | 0.46 | 2 × 10^5 cfu/mL | 0 × 10^5 cfu/mL | 0.00 | Clear | stable | 91.3 | did not affect the denaturation temperature | 73 | statistically significant antimicrobial efficacy | TNTC | 26 × 10^5 cfu/mL | Visual analysis ([3]; preservative 0.05%): Clear; Monomer (%) ([4]; preservative 0.05%): 97.43%; Monomer (%) ([4]; preservative 0.1%): 97.18%; Percent monomer (by SEC) ([4]; preservative 0.1%, listed as methyl paraben): ~91%; Tm (by DSC) ([5]; preservative 0.05%): 80.4 °C; Potency (%) ([6]; preservative 0.05%): 75%; Potency (%) ([6]; preservative 0.1%): 75%; Bacterial × 10^4 (cfu/mL) ([1]; preservative 0.05%): TNTC; Bacterial × 10^4 (cfu/mL) ([1]; preservative 0.1%): 56 × 10^4 cfu/mL |
| – | Oc1ccccc1 [Phenol, phenol] | – | – | – | – | – | – | – | Slightly cloudy | not compatible with the protein | 62.7 | – | – | – | – | – | Visual analysis ([3]; preservative 0.5%): Cloudy; Effect of the preservative on antibody stability (in words) ([4]; listed as phenol): caused the formation of both soluble and insoluble aggregates; Percent monomer (by SEC) ([4]; preservative 0.5%): 20.0% |
| 97.34 | CCCOC(=O)c1ccc(O)cc1 [Propyl paraben, propyl paraben] | – | −0.14 ± 0.05 | 0.26 ± 0.10 | 0.29 | – | – | 0.40 | – | stable | – | did not affect the denaturation temperature | 68 | not effective | TNTC | 0 × 10^5 cfu/mL | Visual analysis ([3]; preservative 0.02%): Clear; Monomer (%) ([4]; preservative 0.0075%): 97.89%; Percent monomer (by SEC) ([4]; preservative 0.02%): 85.3%; Percent monomer (by SEC) ([4]; preservative 0.02%, listed as propyl paraben): 85%; Tm (by DSC) ([5]; preservative 0.02%): 80.6 °C; Potency (%) ([6]; preservative 0.0075%): 74%; Bacterial × 10^4 (cfu/mL) ([1]; preservative 0.0075%): TNTC; Fungi × 10^5 (cfu/mL) ([2]; preservative 0.0075%): 2 × 10^5 cfu/mL |
| – | Cc1cccc(O)c1 [m-cresol] | – | – | – | – | – | – | – | Precipitated | not compatible with the protein | – | – | – | – | – | – | Visual appearance of the formulations (in words) ([3]; all tested concentrations, 2 days at 50° C.): precipitated the protein; Visual analysis ([3]; preservative 0.3%): Precipitated |
